In patent publication US6960597B2, “Aza-bridged-bicyclic amino acid derivatives as α4 integrin antagonists” (Orth-McNeil Pharmaceutical, Inc., priority 2000, dated 2005):
Read-outs that look alike come from different tables or passages of the source.

Experiments:
α4β1 integrin receptor = biological target: T1, α4β1 integrin receptor (Homo sapiens, UniProt P05556+P13612); assay: Ramos Cell Adhesion Assay (α4β1 Mediated Adhesion/VCAM-1); assay type: cell-based
T1 construct: Ramos Cell Adhesion Assay (α4β1 Mediated Adhesion/VCAM-1); endogenous in cells; host or cells: Ramos cells
T1 sequence (P05556 21-798, one chain of several): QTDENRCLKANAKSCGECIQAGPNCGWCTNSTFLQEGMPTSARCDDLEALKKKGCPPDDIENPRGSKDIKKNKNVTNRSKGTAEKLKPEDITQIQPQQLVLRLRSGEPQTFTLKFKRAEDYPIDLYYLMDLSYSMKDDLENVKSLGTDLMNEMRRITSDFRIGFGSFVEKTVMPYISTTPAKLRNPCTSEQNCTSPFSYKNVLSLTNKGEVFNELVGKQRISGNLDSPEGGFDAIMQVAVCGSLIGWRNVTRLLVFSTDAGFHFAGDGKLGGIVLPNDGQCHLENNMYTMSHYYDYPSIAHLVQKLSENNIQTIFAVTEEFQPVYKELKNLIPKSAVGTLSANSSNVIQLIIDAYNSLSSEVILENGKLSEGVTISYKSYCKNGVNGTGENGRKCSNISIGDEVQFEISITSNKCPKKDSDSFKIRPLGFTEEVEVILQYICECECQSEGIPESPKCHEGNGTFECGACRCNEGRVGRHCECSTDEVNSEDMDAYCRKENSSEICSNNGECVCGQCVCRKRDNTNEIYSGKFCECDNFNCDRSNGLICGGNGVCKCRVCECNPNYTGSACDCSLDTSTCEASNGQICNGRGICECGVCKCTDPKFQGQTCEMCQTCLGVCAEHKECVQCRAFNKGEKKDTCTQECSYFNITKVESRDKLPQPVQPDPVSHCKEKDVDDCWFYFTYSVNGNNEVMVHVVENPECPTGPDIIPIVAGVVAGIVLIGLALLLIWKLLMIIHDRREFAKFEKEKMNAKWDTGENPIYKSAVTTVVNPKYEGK
Outline: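 Plates coated overnight at 4° C with recombinant hVCAM-1 (4.0 μg/mL, pH 9.0), then blocked with PBS/1% BSA. Ramos cells labelled with 5 μM Calcein AM adhered 1 h at room temperature with compound; after washing, cells were lysed in SDS and fluorescence read at 485/530 nm.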

human α4β7 = biological target: T2, human α4β7 (Homo sapiens, UniProt P13612+P26010); assay: α4β7-K562 Cell Adhesion Assay (α4β7 Mediated Adhesion/VCAM-1); assay type: cell-based
T2 construct: expressed in transfected cells
T2 sequence (P13612 34-1032): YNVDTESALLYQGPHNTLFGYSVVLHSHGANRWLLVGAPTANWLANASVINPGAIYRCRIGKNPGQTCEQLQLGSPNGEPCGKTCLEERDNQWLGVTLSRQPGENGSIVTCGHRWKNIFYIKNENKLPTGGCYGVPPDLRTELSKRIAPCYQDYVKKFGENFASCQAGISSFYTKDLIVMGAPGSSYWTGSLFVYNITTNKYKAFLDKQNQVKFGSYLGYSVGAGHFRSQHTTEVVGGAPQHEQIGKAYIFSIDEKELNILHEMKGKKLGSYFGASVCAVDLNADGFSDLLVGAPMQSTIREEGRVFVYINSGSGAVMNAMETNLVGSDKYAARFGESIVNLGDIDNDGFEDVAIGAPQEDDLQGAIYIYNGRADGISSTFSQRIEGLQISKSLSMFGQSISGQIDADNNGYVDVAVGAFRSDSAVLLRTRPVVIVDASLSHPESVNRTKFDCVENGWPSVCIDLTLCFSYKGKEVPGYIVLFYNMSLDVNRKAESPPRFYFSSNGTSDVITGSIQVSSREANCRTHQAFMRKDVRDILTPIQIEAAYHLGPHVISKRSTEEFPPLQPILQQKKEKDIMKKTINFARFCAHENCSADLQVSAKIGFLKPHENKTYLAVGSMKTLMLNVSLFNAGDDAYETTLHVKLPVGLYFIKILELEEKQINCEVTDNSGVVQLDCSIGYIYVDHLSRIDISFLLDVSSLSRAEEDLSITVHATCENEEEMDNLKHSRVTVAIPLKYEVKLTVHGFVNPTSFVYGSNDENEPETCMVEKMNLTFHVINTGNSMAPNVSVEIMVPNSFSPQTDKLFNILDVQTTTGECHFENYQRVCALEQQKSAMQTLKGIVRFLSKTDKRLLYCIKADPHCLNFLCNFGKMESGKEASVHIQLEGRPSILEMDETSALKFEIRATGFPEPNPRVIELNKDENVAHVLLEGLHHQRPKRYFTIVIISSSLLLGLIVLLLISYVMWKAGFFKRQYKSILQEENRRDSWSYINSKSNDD
T2 sequence (P26010 20-798): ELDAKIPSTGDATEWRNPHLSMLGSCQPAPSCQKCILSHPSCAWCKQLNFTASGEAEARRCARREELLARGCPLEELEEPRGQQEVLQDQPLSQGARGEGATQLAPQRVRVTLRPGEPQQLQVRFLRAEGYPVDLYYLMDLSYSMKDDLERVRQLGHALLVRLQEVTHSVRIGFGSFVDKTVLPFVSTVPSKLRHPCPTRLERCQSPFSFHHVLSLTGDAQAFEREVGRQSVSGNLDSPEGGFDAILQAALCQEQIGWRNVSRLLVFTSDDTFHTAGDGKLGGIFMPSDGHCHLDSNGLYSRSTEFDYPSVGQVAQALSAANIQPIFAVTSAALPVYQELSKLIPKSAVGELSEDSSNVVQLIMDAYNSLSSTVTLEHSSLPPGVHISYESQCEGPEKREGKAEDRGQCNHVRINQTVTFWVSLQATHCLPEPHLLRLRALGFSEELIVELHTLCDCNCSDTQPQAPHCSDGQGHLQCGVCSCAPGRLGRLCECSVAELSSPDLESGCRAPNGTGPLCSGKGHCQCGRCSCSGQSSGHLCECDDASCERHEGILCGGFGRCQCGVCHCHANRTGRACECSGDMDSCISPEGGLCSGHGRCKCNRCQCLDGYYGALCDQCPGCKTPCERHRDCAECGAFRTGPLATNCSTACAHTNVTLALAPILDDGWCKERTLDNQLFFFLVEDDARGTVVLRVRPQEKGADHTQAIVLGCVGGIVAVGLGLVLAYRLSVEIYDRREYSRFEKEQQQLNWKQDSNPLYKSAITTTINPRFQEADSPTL
Outline: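 K562 cells stably expressing human α4β7, labelled with 5 μM Calcein AM, adhered for 1 h at room temperature to plates coated with recombinant hVCAM-1 (4.0 μg/mL) in the presence of compound. After washing, cells were lysed in Tris/SDS. Bound cells were read by fluorescence at 485/530 nm.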

[1] = system: heterotopic heart allograft; conditions: hyperlipidemic rabbit; cited from earlier work
[2] = system: oxazolone-induced contact hypersensitivity; conditions: mouse; 6 mg/kg, sc; cited from earlier work
α4β1 = α4β1 (Homo sapiens, UniProt P05556+P13612); conditions: cited from earlier work
α4β1, sequence (P05556 21-798, one chain of several): as the sequence (P05556 21-798, one chain of several) above

[3] = Table III, read-out: Inhibition of Binding of Ramos Cells to Immobilized VCAM-1 IC50
[4] = Table IV, μM, read-out: Inhibition of Binding of K562 Cells to Immobilized VCAM-1 IC50
[5] = Table IV, read-out: Inhibition of Binding of K562 Cells to Immobilized VCAM-1 IC50
[6] = Table III, μM, read-out: Inhibition of Binding of Ramos Cells to Immobilized VCAM-1 IC50

| Compound | IC50 (α4β1 integrin receptor; [3]) | IC50 (human α4β7; [4]) | IC50 (human α4β7; [5]) | also measured |
| --- | --- | --- | --- | --- |
| CC(C)(C)c1ccc(C[C@H](NC(=O)C2C3CCC(CC3)N2S(=O)(=O)c2ccccc2)C(=O)O)cc1 (stereo partly drawn) [Cpd 58, 4-(1,1-dimethylethyl)-N-[[2-(phenylsulfonyl)-2-azabicyclo[2.2.2]oct-3-yl]carbonyl]-L-phenylalanine] | 0.523 µM | > 10 µM | – | – |
| O=C(Nc1ccc(C[C@H](NC(=O)C2C3CCC(CC3)N2S(=O)(=O)c2ccccc2)C(=O)O)cc1)C1CCNCC1 (stereo partly drawn) [Cpd 59, 4-[(4-piperidinylcarbonyl)amino]-N-[[2-(phenylsulfonyl)-2-azabicyclo[2.2.2]oct-3-yl]carbonyl]-L-phenylalanine] | 0.237 µM | – | 1.5 µM | – |
| O=C(O)C(Cc1ccc(OCc2c(Cl)cccc2Cl)c(F)c1)NC(=O)C1C2CCC(CC2)N1S(=O)(=O)c1ccccc1 (stereo not drawn) [Cpd 62] | – | > 10 µM | – | IC50 (α4β1 integrin receptor; [6]): > 5 µM |
| O=C(O)[C@H](Cc1ccc(OCc2c(Cl)cccc2Cl)c(F)c1)NC(=O)[C@@H]1C2CCC(CC2)N1S(=O)(=O)c1ccccc1 [Cpd 62a, O-[(2,6-dichlorophenyl)methyl]-3-fluoro-N-[[(3S)-2-(phenylsulfonyl)-2-azabicyclo[2.2.2]oct-3-yl]carbonyl]-L-tyrosine] | – | > 10 µM | – | IC50 (α4β1 integrin receptor; [6]): > 5 µM |
| CN(C)C(=O)Oc1ccc(C[C@H](NC(=O)C2C3CCC(CC3)N2S(=O)(=O)c2cccs2)C(=O)O)cc1 (stereo partly drawn) [Cpd 63, O-[(dimethylamino)carbonyl]-N-[[2-(2-thienylsulfonyl)-2-azabicyclo[2.2.2]oct-3-yl]carbonyl]-L-tyrosine] | – | – | – | IC50 (α4β1 integrin receptor; Inhibition of Binding of Ramos Cells to Immobilized VCAM-1 IC50, Table III): 0.112 µM; IC50 (human α4β7): 0.286 µM |
| CC(C)(C)C(=O)Nc1ccc(C[C@H](NC(=O)[C@@H]2C3CCC(CC3)N2S(=O)(=O)c2ccccc2)C(=O)O)cc1 [Cpd 64, 4-[(2,2-dimethyl-1-oxopropyl)amino]-N-[[(3S)-2-(phenylsulfonyl)-2-azabicyclo[2.2.2]oct-3-yl]carbonyl]-L-phenylalanine] | 0.393 µM | > 10 µM | – | – |
| CCOc1ccc2ccccc2c1C(=O)Nc1ccc(C[C@H](NC(=O)[C@@H]2C3CCC(CC3)N2S(=O)(=O)c2ccccc2)C(=O)O)cc1 [Cpd 65, 4-[[(2-ethoxy-1-naphthalenyl)carbonyl]amino]-N-[[(3S)-2-(phenylsulfonyl)-2-azabicyclo[2.2.2]oct-3-yl]carbonyl]-L-phenylalanine] | 0.193 µM | – | 0.394 µM | – |
| O=C(Nc1ccc(C[C@H](NC(=O)C2C3CCC(CC3)N2S(=O)(=O)c2cccs2)C(=O)O)cc1)c1c(Cl)cccc1Cl (stereo partly drawn) [Cpd 66, 4-[(2,6-dichlorobenzoyl)amino]-N-[[2-(2-thienylsulfonyl)-2-azabicyclo[2.2.2]oct-3-yl]carbonyl]-L-phenylalanine] | 0.017 µM | – | 0.186 µM | – |
| O=C(Nc1ccc(C[C@H](NC(=O)[C@@H]2C3CCC(CC3)N2S(=O)(=O)c2ccccc2)C(=O)O)cc1)C1CC1 [Cpd 67, 4-[(cyclopropylcarbonyl)amino]-N-[[(3S)-2-(phenylsulfonyl)-2-azabicyclo[2.2.2]oct-3-yl]carbonyl]-L-phenylalanine] | 0.628 µM | – | 0.683 µM | – |
| CC1(C)C(C(=O)Nc2ccc(C[C@H](NC(=O)[C@@H]3C4CCC(CC4)N3S(=O)(=O)c3ccccc3)C(=O)O)cc2)C1(C)C [Cpd 68, 4-[[(2,2,3,3-tetramethylcyclopropyl)carbonyl]amino]-N-[[(3S)-2-(phenylsulfonyl)-2-azabicyclo[2.2.2]oct-3-yl]carbonyl]-L-phenylalanine] | 0.873 µM | > 50 µM | – | – |
| CC(C)C(=O)Nc1ccc(C[C@H](NC(=O)[C@@H]2C3CCC(CC3)N2S(=O)(=O)c2ccccc2)C(=O)O)cc1 [Cpd 69, 4-[(2-methyl-1-oxopropyl)amino]-N-[[(3S)-2-(phenylsulfonyl)-2-azabicyclo[2.2.2]oct-3-yl]carbonyl]-L-phenylalanine] | 0.455 µM | – | 1.67 µM | – |
| O=C(O)[C@H](Cc1ccc(NC(=O)[C@@H]2C3CCC(CC3)N2S(=O)(=O)c2ccccc2)cc1)NC(=O)[C@@H]1C2CCC(CC2)N1S(=O)(=O)c1ccccc1 [Cpd 70, 4-[[[(3S)-2-(phenylsulfonyl)-2-azabicyclo[2.2.2]oct-3-yl]carbonyl]amino]-N-[[(3S)-2-(phenylsulfonyl)-2-azabicyclo[2.2.2]oct-3-yl]carbonyl]-L-phenylalanine] | 0.37 µM | – | 2.03 µM | – |
| O=C(Nc1ccc(C[C@H](NC(=O)[C@@H]2C3CCC(CC3)N2S(=O)(=O)c2cccs2)C(=O)O)cc1)c1c(Cl)cncc1Cl [Cpd 71a, 4-[[(3,5-dichloro-4-pyridinyl)carbonyl]amino]-N-[[(3S)-2-(2-thienylsulfonyl)-2-azabicyclo[2.2.2]oct-3-yl]carbonyl]-L-phenylalanine] | 0.36 µM | – | – | IC50 (α4β1 integrin receptor; Table I, racemic mixtures and resolved (S,S) and (R,S) diastereomers, read-out: Antagonist IC50 Activity α4β1): 0.006 µM; IC50 (human α4β7; Table I, racemic mixtures and resolved (S,S) and (R,S) diastereomers, read-out: Antagonist IC50 Activity α4β7): 0.033 µM |
| Phenylacetyl-Leu-Asp-Phe-D-Pro-NH2 | – | – | – | efficacy in heterotopic heart allograft model [1]: effective; efficacy in oxazolone-induced contact hypersensitivity [2]: efficacy similar to the α4 antibody PS/2; IC50 (α4β1): 2000 nM |
